Measured values as given in ChEMBL document CHEMBL1201862, “PubChem BioAssay data set” (2004).
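Exposure lasted 48 hours, with cells grown in 96-well plates and compounds tested at five concentrations. Abbreviation: GI50, concentration required for 50% inhibition of growth.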 Active and inactive are the calls of the source. No stated cut-off is given here; in the data, active = GI50 up to about 1.1 µM and inactive = higher.

Assays:
Assay in all cases: NCI tumour cell line growth inhibition, 48 h
[1] = test system: OVCAR-3
[2] = test system: HCT-116
[3] = test system: 786-0
[4] = test system: LOX IMVI
[5] = test system: KM12
[6] = test system: NCI-H23
[7] = test system: SK-MEL-2
[8] = test system: ACHN
[9] = test system: HCC 2998
[10] = test system: A498
[11] = test system: SF-268
[12] = test system: U-251
[13] = test system: SN12C
[14] = test system: UACC-62
[15] = test system: SF-295
[16] = test system: UO-31
[17] = test system: COLO 205

Measured: GI50

CN1c2ccccc2N(C)C2C1N(C)c1ccccc1N2C (stereo not drawn)
inactive: [1] 8.71 µM | [2] 12.7 µM | [3] 32.9 µM | [4] 5.25 µM | [5] 16 µM | [6] 16.8 µM | [7] 9.59 µM | [8] 40.1 µM | [9] 9.73 µM | [10] 31.6 µM | [11] 12.3 µM | [12] 26.1 µM | [13] 20 µM | [14] 5.15 µM | [15] 31.3 µM | [16] 31.6 µM | [17] 10.8 µM

COC(=O)C(Cc1nc2ccc(Cl)cc2nc1O)/C(=N/NC(N)=O)C(=O)Nc1ccc(Cl)cc1 (stereo not drawn)
inactive: [1] > 100 µM | [2] > 100 µM | [3] > 100 µM | [4] > 100 µM | [5] > 100 µM | [6] > 100 µM | [7] > 100 µM | [8] > 100 µM | [9] > 100 µM | [10] > 100 µM | [11] > 100 µM | [12] > 100 µM | [13] > 100 µM | [14] > 100 µM | [15] > 100 µM | [16] > 100 µM | [17] > 100 µM

C=C=C[P+](c1ccccc1)(c1ccccc1)c1ccccc1
inactive: [1] 5.57 µM | [2] 3.37 µM | [3] 5.02 µM | [5] 13 µM | [7] 10.7 µM | [8] 14.5 µM | [9] 42.6 µM | [10] 93.8 µM | [11] 15.3 µM | [12] 3.56 µM | [13] 3.78 µM | [16] 35.2 µM | [17] 2.57 µM

Cc1nc(C(N)=S)sc1C(=O)CC(=O)C(=O)Nc1ccccc1[N+](=O)[O-]
inactive: [1] > 100 µM | [2] > 100 µM | [3] > 100 µM | [4] > 100 µM | [5] > 100 µM | [6] > 100 µM | [7] > 100 µM | [8] > 100 µM | [9] > 100 µM | [10] > 100 µM | [11] > 100 µM | [12] > 100 µM | [14] > 100 µM | [15] > 100 µM | [16] > 100 µM

COc1cc2c(cc1OC)C(=O)Cc1ccc(OC)c(OC)c1CN(C)CC2
inactive: [1] > 100 µM | [2] > 100 µM | [3] > 100 µM | [4] > 100 µM | [5] > 100 µM | [6] > 100 µM | [7] > 100 µM | [8] 27.7 µM | [9] > 100 µM | [10] 11.9 µM | [11] > 100 µM | [12] > 100 µM | [13] > 100 µM | [14] > 100 µM | [16] > 100 µM | [17] > 100 µM

COc1ccc(C2=NN(c3ccccc3)C[N+](c3ccc(OC)cc3)=N2)cc1
inactive: [1] 22 µM | [2] 33.7 µM | [3] 49.9 µM | [4] 17.6 µM | [5] 21.3 µM | [6] 29.9 µM | [8] 30.3 µM | [9] 37.8 µM | [10] > 100 µM | [11] 35.9 µM | [12] 20.4 µM | [13] 54.1 µM | [15] 59.4 µM | [16] 18.9 µM | [17] > 10 µM

CCOC(=O)Cn1c(=O)n(C)c(=O)c2[nH]cnc21
inactive: [1] > 100 µM | [2] > 100 µM | [3] > 100 µM | [5] > 100 µM | [6] > 100 µM | [7] > 100 µM | [8] > 100 µM | [10] > 100 µM | [11] > 100 µM | [12] > 100 µM | [13] > 100 µM | [14] > 100 µM | [16] > 100 µM | [17] > 100 µM

COc1cc2c(cc1O)[C@H](C)C(c1ccc(Cl)cc1)O2 (stereo partly drawn)
inactive: [1] 37.4 µM | [2] 16.1 µM | [3] 17.1 µM | [4] 16 µM | [5] 25.2 µM | [6] 21 µM | [7] 21.3 µM | [8] 14.1 µM | [9] 18.5 µM | [10] 11.9 µM | [11] 20.7 µM | [12] 19.1 µM | [14] 21.2 µM | [15] 31 µM | [16] 24.4 µM | [17] 27.2 µM

CC12CCC(=O)N1[C@@H](c1ccccc1)[C@@H](c1ccccc1)O2 (stereo partly drawn)
inactive: [1] > 100 µM | [2] > 100 µM | [3] > 100 µM | [4] > 100 µM | [5] > 100 µM | [7] > 100 µM | [8] > 100 µM | [9] > 100 µM | [10] > 100 µM | [11] > 100 µM | [13] > 100 µM | [14] 42.5 µM | [15] > 100 µM | [16] > 100 µM | [17] > 100 µM
